The IC50 is the concentration that inhibits the measured activity by half.

Converted amounts (≈) assume the structure as drawn. Read-outs that look alike come from different tables or passages of the source.

One data set relates to M. tuberculosis H37Rv. Put plainly: In vitro efficacy test using the H37Rv strain, Microplate Alamar Blue Assay (MABA) MIC. In kind it is cell-based, Mycobacterium tuberculosis. The settings on record: for MIC: Mycobacterium tuberculosis, H37RV. Background: Resazurin is reduced to fluorescent resorufin, in cell work by metabolically active cells.
The next data set concerns M. tuberculosis H37R. The data set can be described thus: microbe, parasite or virus in culture. In kind it is cell-based, Mycobacterium tuberculosis. The settings on record: for MIC: Mycobacterium tuberculosis, H37R, read-out: M. tuberculosis H37R LORA (MIC).
For the next data set, the system named is Vero Cell. The data set can be described thus: Vero cell cytotoxicity (IC50). In kind it is cell-based. The following applies: African green monkey kidney cells; for IC50: Chlorocebus sabaeus, Vero.
Data set [1] concerns Mycobacterium tuberculosis (ATCC35801). The data set can be described thus: In vivo efficacy in a mice model infected with M. tuberculosis by spray (lung bacteria load). The settings on record: female Balb/c mice, day 35, compared with the solvent treated group.
A further data set can be described thus: in vitro. The settings on record: human.
Data set [2] relates to Mycobacterium smegmatis strain ATCC19420. Put plainly: In vitro efficacy test using Mycobacterium smegmatis strain ATCC19420 (MIC). Type of data set: cell-based. The settings on record: CA-MHB + 0.02% Tween 80, 30° C., read after 72 hours; for MIC: Mycolicibacterium smegmatis, ATCC19420, 72 h.
A further data set deals with Hela. Put plainly: Hela cell cytotoxicity (CC50). The following applies: human cervical cancer cells; half of the toxic concentration.
Data set [3] can be described thus: Hela cell cytotoxicity (CC50). The following applies: human, HeLa cells (human cervical cancer cells), CC50_Hela, half of the toxic concentration.
Setting [4] is: aerobic, 7H9 medium, Alamar Blue, read-out: M. tuberculosis H37Rv MABA (MIC).
Setting [5] is: aerobic, 7H9 medium, Alamar Blue.

On to `COc1nc2ccc(Br)cc2cc1[C@@H](c1ccccc1)[C@@](O)(CCN(C)C)c1cccc2ccccc12` [Bedaquiline, reference compound], for which the MIC with M. tuberculosis H37Rv (setting [4]) came to 0.03 µg/mL; in the data set with M. tuberculosis H37Rv (wild-type H37Rv strain, two values per compound, read-out: MABA MIC vs. H37Rv), 0.06 µM; in the data set on M. tuberculosis H37R, 0.2 µg/mL (≈ 0.36 µM). Moreover, the “MABA MIC vs. H37Rv” value with M. tuberculosis H37Rv (wild-type H37Rv strain, two values per compound) is 0.05 µM. The IC50 in the data set on Vero Cell is more than 32 µg/mL. The “reduction of the amount of the bacteria in the lungs” value in data set [1] (25 mg/kg by gavage once each working day for four weeks) was 5.2 log. The compound also returned a CC50 in “in vitro” of more than 64 µg/mL.
For the compound `COc1ncc(C2CCCC2)cc1C(c1ccccc1)C(O)(CCN(C)C)c1cccc2ccccc12` (centres unmarked) [Compound 64], in data set [2], the “M. smegmatis ATCC19420 MIC” value turned out to be 0.5 µg/mL. Also, the “M. tuberculosis H37Rv MABA (MIC)” value with M. tuberculosis H37Rv (setting [5]) came to 2.33 µg/mL. Also, the “M. tuberculosis H37R LORA (MIC)” value with M. tuberculosis H37R came out at 3.06 µg/mL. Also, the “Vero Cell (IC50)” value in the data set with Vero Cell is more than 50 µg/mL. This compound yielded a CC50_Hela in the data set with Hela of 28.75 µg/mL (≈ 58.1 µM).
As to `COc1ncc(C2CCCCC2)cc1C(c1ccccc1)C(O)(CCN(C)C)c1cccc2ccccc12` (centres unmarked) [Compound 103, 1-(5-cyclohexyl-2-methoxypyridin-3-yl)-4-(dimethylamino)-2-(naphthalen-1-yl)-1-phenylbutan-2-ol], in data set [2], the “M. smegmatis ATCC19420 MIC” value is 0.125 µg/mL. Besides, the MIC with M. tuberculosis H37Rv (setting [4]) turned out to be 0.76 µg/mL; in the data set on M. tuberculosis H37R, 1.48 µg/mL (≈ 2.91 µM). In the data set on Vero Cell, 32.3 µg/mL (≈ 63.5 µM) corresponded to half-maximal inhibition (IC50). In the data set on Hela, this compound returned a CC50_Hela of 57.72 µg/mL (≈ 113 µM).
Turning to `COc1ncc(C2CCCCC2)cc1C(c1ccccc1)C(O)(CCN(C)C)c1cccc2ccccc12` (centres unmarked) [Compound 104, 1-(5-cyclohexyl-2-methoxypyridin-3-yl)-4-(dimethylamino)-2-(naphthalen-1-yl)-1-phenylbutan-2-ol], in data set [2], the “M. smegmatis ATCC19420 MIC” value is 0.5 µg/mL. The “M. tuberculosis H37Rv MABA (MIC)” value with M. tuberculosis H37Rv (setting [5]) was 1.45 µg/mL. The “M. tuberculosis H37R LORA (MIC)” value in the data set with M. tuberculosis H37R turned out to be 1.52 µg/mL. Also, the “Vero Cell (IC50)” value in the data set with Vero Cell was more than 50 µg/mL. In addition, the CC50_Hela with Hela came out at 19.18 µg/mL (≈ 37.7 µM).
The matching figures for `COc1ncc(-c2csc(Br)c2)cc1C(c1ccccc1)C(O)(CCN(C)C)c1cccc2ccccc12` (centres unmarked) [Compound 275]: 0.125 µg/mL, 0.41 µg/mL, 0.67 µg/mL, more than 32 µg/mL and more than 64 µg/mL.
Regarding `COc1ncc(-c2ccc(Cl)cc2)cc1C(c1ccccc1)C(O)(CCN(C)C)c1cccc(F)c1` (centres unmarked) [Compound 297], the MIC in data set [2] was 0.0312 µg/mL; in the data set with M. tuberculosis H37Rv (setting [4]) it was 0.1 µg/mL; with M. tuberculosis H37R, 0.74 µg/mL (≈ 1.47 µM). The compound further had an IC50 in the data set on Vero Cell of more than 32 µg/mL. The CC50 in data set [3] turned out to be 39.1 µg/mL (≈ 77.5 µM).
The matching figures for `COc1ccc(-c2cnc(OC)c(C(c3ccccc3)C(O)(CCN(C)C)c3cccc4ccccc34)c2)cc1` (centres unmarked) [Compound 299, 4-(dimethylamino)-1-(2-methoxy-5-(4-methoxyphenyl)pyridin-3-yl)-2-(naphthalen-1-yl)-1-phenylbutan-2-ol]: 0.125 µg/mL, 0.33 µg/mL, 0.19 µg/mL (≈ 0.357 µM), more than 32 µg/mL and more than 64 µg/mL.
For `COc1ncc(-c2ccc(Cl)c(F)c2)cc1C(c1ccccc1)C(O)(CCN(C)C)c1cccc2ccccc12` (centres unmarked) [Compound 303, 1-(5-(4-chloro-3-fluorophenyl)-2-methoxypyridin-3-yl)-4-(dimethylamino)-2-(naphthalen-1-yl)-1-phenylbutan-2-ol] the same measures were 0.0312 µg/mL, 0.19 µg/mL, 0.52 µg/mL (≈ 0.937 µM), more than 32 µg/mL and more than 64 µg/mL.
The matching figures for `COc1ncc(-c2ccc(Br)cc2)cc1C(c1ccccc1)C(O)(CCN(C)C)c1cccc(F)c1F` (centres unmarked) [Compound 312, 1-(5-(4-bromophenyl)-2-methoxypyridin-3-yl)-2-(2,3-difluorophenyl)-4-(dimethylamino)-1-phenylbutan-2-ol]: 0.0156 µg/mL, 0.04 µg/mL, 0.19 µg/mL (≈ 0.335 µM), more than 32 µg/mL and 31.3 µg/mL (≈ 55.2 µM).
With `COc1ncc(-c2ccc(Br)cc2)cc1C(c1ccccc1)C(O)(CCN(C)C)c1cc(F)cc(F)c1` (centres unmarked) [Compound 316, 1-(5-(4-bromophenyl)-2-methoxypyridin-3-yl)-2-(3,5-difluorophenyl)-4-dimethylamino-1-phenylbutan-2-ol], the MIC in data set [2] is 0.0156 µg/mL; in the data set with M. tuberculosis H37Rv (setting [4]) it was 0.04 µg/mL; in the data set on M. tuberculosis H37R it was 2.97 µg/mL (≈ 5.23 µM). In the data set on Vero Cell, this compound came in with an IC50 of more than 32 µg/mL. Further, the CC50 in data set [3] is more than 64 µg/mL.
For `COc1ncc(-c2ccc(Br)cc2)cc1C(c1ccccc1)C(O)(CCN(C)C)c1cccc(F)c1` (centres unmarked) [Compound 319] the same measures were 0.0312 µg/mL, 0.09 µg/mL, 0.22 µg/mL (≈ 0.4 µM), more than 32 µg/mL and 49.2 µg/mL (≈ 89.5 µM).
For `COc1ncc(-c2ccc(Br)cc2)cc1C(c1ccc(Cl)cc1)C(O)(CCN(C)C)c1cccc2ccccc12` (centres unmarked) [Compound 325, 1-(5-(4-bromophenyl)-2-methoxypyridin-3-yl)-1-(4-chlorophenyl)-4-dimethylamino-2-(naphthalen-1-yl)butan-2-ol] the same measures were 0.0312 µg/mL, 0.04 µg/mL, 0.125 µg/mL (≈ 0.203 µM), more than 32 µg/mL and more than 64 µg/mL.
Take `COc1ncc(-c2ccc(Br)c(F)c2)cc1C(c1ccccc1)C(O)(CCN(C)C)c1cccc2ccccc12` (centres unmarked) [Compound 331, 1-(5-(4-bromo-3-fluorophenyl)-2-methoxypyridin-3-yl)-4-(dimethylamino)-2-(naphthalen-1-yl)-1-phenylbutan-2-ol]: the MIC was 0.0625 µg/mL in data set [2], 0.04 µg/mL in the data set with M. tuberculosis H37Rv (setting [4]) and 4.07 µg/mL (≈ 6.79 µM) in the data set with M. tuberculosis H37R. Also, the concentration for half-maximal inhibition (IC50) in the data set on Vero Cell was more than 32 µg/mL. In addition, the CC50 in data set [3] was more than 64 µg/mL.
For the compound `COc1ncc(C#Cc2ccccc2)cc1C(c1ccccc1)C(O)(CCN(C)C)c1cccc2ccccc12` (centres unmarked) [Compound 337, 4-(dimethylamino)-1-[2-methoxy-5-(2-phenylethynyl)-3-pyridyl]-2-(1-naphthyl)-1-phenyl-butan-2-ol], the MIC amounted to 0.25 µg/mL in data set [2], 0.14 µg/mL with M. tuberculosis H37Rv (setting [4]) and 1.51 µg/mL (≈ 2.87 µM) with M. tuberculosis H37R. Besides, in the data set on Vero Cell, the IC50 is more than 32 µg/mL. This compound also yielded a CC50 in data set [3] of more than 64 µg/mL.
As to `COc1ncc(-c2ccc(Cl)cc2)cc1C(c1ccccc1)C(O)(CCN(C)C)c1cc(Cl)cc(Cl)c1` (centres unmarked) [Compound 341, 1-(5-(4-chlorophenyl)-2-methoxypyridin-3-yl)-2-(3,5-dichlorophenyl)-4-(dimethylamino)-1-phenylbutan-2-ol], the values for the MIC (in data set [2]; in the data set on M. tuberculosis H37Rv (setting [4]); in the data set with M. tuberculosis H37R) were not above 0.0625 µg/mL, 0.031 µg/mL and 0.23 µg/mL (≈ 0.414 µM), respectively. Further, in the data set on Vero Cell, the 50% inhibitory concentration (IC50) was more than 32 µg/mL. The CC50 in data set [3] is more than 64 µg/mL.
Take `COc1ncc(-c2ccc(F)c(F)c2)cc1C(c1ccccc1)C(O)(CCN(C)C)c1cccc2ccccc12` (centres unmarked) [Compound 347]: the MIC in data set [2] turned out to be 0.0625 µg/mL; in the data set with M. tuberculosis H37Rv (setting [4]), 0.23 µg/mL; with M. tuberculosis H37R it was 0.51 µg/mL (≈ 0.947 µM). In the data set on Vero Cell, this compound had an IC50 of more than 32 µg/mL. Besides, the CC50 in data set [3] was more than 64 µg/mL.
Take `COc1ncc(-c2ccc(Cl)cc2)cc1C(c1ccccc1)C(O)(CCN(C)C)c1cccc(Cl)c1` (centres unmarked) [Compound 351, 2-(3-chlorophenyl)-1-(5-(4-chlorophenyl)-2-methoxypyridin-3-yl)-4-(dimethylamino)-1-phenylbutan-2-ol]: the MIC in data set [2] was 0.0156 µg/mL; with M. tuberculosis H37Rv (setting [4]) it was 0.11 µg/mL; with M. tuberculosis H37R, 0.16 µg/mL (≈ 0.307 µM). In the data set on Vero Cell, this compound came in with an IC50 of more than 32 µg/mL. Further, in data set [3], the CC50 was 25.5 µg/mL (≈ 48.9 µM).
As to `COc1ncc(-c2ccc(Br)cc2)cc1C(c1ccccc1)C(O)(CCN(C)C)c1cccc(Cl)c1` (centres unmarked) [Compound 355, 1-(5-(4-bromophenyl)-2-methoxypyridin-3-yl)-2-(3-chlorophenyl)-4-(dimethylamino)-1-phenylbutan-2-ol], the MIC in data set [2] was 0.0156 µg/mL; with M. tuberculosis H37Rv (setting [4]), 0.17 µg/mL; in the data set with M. tuberculosis H37R, 0.21 µg/mL (≈ 0.371 µM). In the data set on Vero Cell, this compound registered a half-maximal inhibitory concentration (IC50) of more than 32 µg/mL. The compound also showed a CC50 in data set [3] of 53.2 µg/mL (≈ 94.1 µM).
Take `COc1ncc(-c2ccc(OC(F)(F)F)cc2)cc1C(c1ccccc1)C(O)(CCN(C)C)c1cccc2ccccc12` (centres unmarked) [Compound 375, 4-(dimethylamino)-1 (2-methoxy-5-(4-(trifluoromethoxy)phenyl)pyridin-3-yl)-2-(naphthalen-1-yl)-1-phenylbutan-2-ol]: the MIC in data set [2] came out at 0.0156 µg/mL; in the data set with M. tuberculosis H37Rv (setting [4]), 0.031 µg/mL; in the data set with M. tuberculosis H37R, 0.61 µg/mL (≈ 1.04 µM). Moreover, the IC50 in the data set on Vero Cell is more than 32 µg/mL. The same compound yielded a CC50 in data set [3] of more than 64 µg/mL.
As to `CO[C@H]1/C=C/O[C@@]2(C)Oc3c(C)c(O)c4c(O)c(c(/C=N/N5CCN(C)CC5)c(O)c4c3C2=O)NC(=O)/C(C)=C\C=C\[C@H](C)[C@H](O)[C@@H](C)[C@@H](O)[C@@H](C)[C@H](OC(C)=O)[C@@H]1C` [rifampicin], in data set [1] (15 mg/kg by gavage once each working day for four weeks), the “reduction of the amount of the bacteria in the lungs” value stood at 1.8 log.

(Values after patent US9878982B2, “Pyridine derivatives and anti-mycobacterial use thereof” (priority 2014, dated 2018).)
